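Results reflect a 48-hour exposure of cells in 96-well plates to compound at five concentrations. TGI: total growth inhibition.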
Tests used:
Experiment in all cases: NCI-60 cell line screen, 48 h
OVCAR-8 ovarian = system: OVCAR-8 ovarian
SF-295 CNS = system: SF-295 CNS
U251 CNS = system: U251 CNS
SK-OV-3 ovarian = system: SK-OV-3 ovarian
DMS 273 small cell lung = system: DMS 273 small cell lung
KM20L2 colon = system: KM20L2 colon
LXFL 529 NSCLC = system: LXFL 529 NSCLC
M19-MEL melanoma = system: M19-MEL melanoma
SNB-78 CNS = system: SNB-78 CNS
XF 498 CNS = system: XF 498 CNS
DLD-1 colon = system: DLD-1 colon
DMS 114 small cell lung = system: DMS 114 small cell lung

SMILES | TGI (OVCAR-8 ovarian) [µM] | TGI (SF-295 CNS) [µM] | TGI (U251 CNS) [µM] | TGI (SK-OV-3 ovarian) [µM] | TGI (DMS 273 small cell lung) [µM] | TGI (KM20L2 colon) [µM] | TGI (LXFL 529 NSCLC) [µM] | TGI (M19-MEL melanoma) [µM] | TGI (SNB-78 CNS) [µM] | TGI (XF 498 CNS) [µM] | TGI (DLD-1 colon) [µM] | TGI (DMS 114 small cell lung) [µM]
O=C(O)c1ccc(Nc2nc3ccc(C(F)(F)F)cc3nc2-c2ccccc2)cc1 | > 100 | > 100 | > 100 | – | – | – | – | – | – | – | – | –
COc1cc2c(cc1OC)-c1cc3cc(OC)c(OC)cc3c(C)[n+]1CC2 (tested in a mixture with another compound) | > 100 | > 100 | > 100 | > 100 | – | – | – | – | – | – | – | –
CC(c1ccccc1)n1c2ccccc2c2c(N)ncnc21 (stereo not drawn) | 31.8 | 36.6 | 30.5 | 29.5 | – | – | – | – | – | – | – | –
CC(=O)c1ccc(Nc2nc3ccccc3c3occc23)cc1 | > 100 | 41.1 | > 100 | 58.8 | – | – | – | – | – | – | – | –
Cc1cc2nc3c(C#N)c4c(c(Cl)n3c2cc1C)CCC4 | 37.4 | > 100 | 30.4 | > 100 | – | – | – | – | – | – | – | –
CC(C)(Cl)C(Cl)CC/C(CBr)=C(\Cl)CBr (stereo not drawn) | 3.92 | 16 | 3.57 | 13.5 | – | – | – | – | – | – | – | –
CCOC(=O)c1c(Br)c(-c2ccc([N+](=O)[O-])cc2)c(Br)n1C | > 10 | > 10 | > 10 | > 10 | – | – | – | – | – | – | – | –
CC(=O)c1sc2c(c1OC(=O)c1ccccc1)c(=O)n(-c1ccccc1)c(=S)n2-c1ccccc1 | > 28.3 | 16.7 | 23.7 | > 49.9 | – | – | – | – | – | – | – | –
CC1=C(C(=O)NNC(=O)c2ccccc2O)CC(C(=O)NNC(=O)c2ccccc2O)=C(C)N1 | > 65.3 | > 100 | > 100 | > 100 | – | – | – | – | – | – | – | –
Cc1nc2c(n1Cc1ccc(F)cc1)C(=O)c1ccccc1C2=O | > 100 | > 100 | > 100 | > 100 | > 100 | > 100 | > 100 | 13.5 | > 100 | > 100 | – | –
CCn1c(=O)c2c3ccc(O)cc3[nH]c2c2ccc(O)cc21 | > 100 | > 100 | > 100 | > 100 | – | – | – | – | – | – | – | –
O=C(OCC1CC(C2(O)CCCCC2)C(=O)O1)c1ccccc1 (stereo not drawn) | > 100 | > 100 | > 100 | > 100 | – | – | – | – | – | – | – | –
COC1=C(OC)C(=O)C(C/C=C/c2c(Cl)nc3sccn23)=C(C)C1=O | 24.2 | 21 | 25.6 | 33.8 | – | – | – | – | – | – | – | –
CCOC(=O)C12CCC(c3c(C)cccc3C)(O1)C(C(=O)OC)=C2C(=O)OC (stereo not drawn) | > 10 | > 10 | > 10 | > 10 | – | – | – | – | – | – | – | –
O=C(O)C1Cc2[nH]c3ccccc3c2C2CCCC12 (stereo not drawn) | > 100 | > 100 | > 100 | > 100 | > 100 | > 100 | > 100 | > 100 | > 100 | > 100 | > 100 | > 100
